This note sets out measurements from patent US12194050B2, “Thiadiazine derivatives” (RICHTER GEDEON NYRT., priority 2018, dated 2025).

For orientation: EC50 means the concentration giving half of the maximal effect.

For this test, the target named is human α7 nAchR (Homo sapiens (Human), UniProt P36544). The experiment in a line: Human α7 nicotinic acetylcholine receptor [Ca2+]i assay (PAM, Ca2+ fluorometry). The format is cell-based. The following applies: Flp-In 293 cells expressing human α7 nAchR and human RIC-3; in presence of saturating agonist (mostly PNU-282987, 1 μM). The procedure: Biological Activity Human α7 Nicotinic Acetylcholine Receptor [Ca^2+]i Assay
Chain of human α7 nAchR (P36544 23-502): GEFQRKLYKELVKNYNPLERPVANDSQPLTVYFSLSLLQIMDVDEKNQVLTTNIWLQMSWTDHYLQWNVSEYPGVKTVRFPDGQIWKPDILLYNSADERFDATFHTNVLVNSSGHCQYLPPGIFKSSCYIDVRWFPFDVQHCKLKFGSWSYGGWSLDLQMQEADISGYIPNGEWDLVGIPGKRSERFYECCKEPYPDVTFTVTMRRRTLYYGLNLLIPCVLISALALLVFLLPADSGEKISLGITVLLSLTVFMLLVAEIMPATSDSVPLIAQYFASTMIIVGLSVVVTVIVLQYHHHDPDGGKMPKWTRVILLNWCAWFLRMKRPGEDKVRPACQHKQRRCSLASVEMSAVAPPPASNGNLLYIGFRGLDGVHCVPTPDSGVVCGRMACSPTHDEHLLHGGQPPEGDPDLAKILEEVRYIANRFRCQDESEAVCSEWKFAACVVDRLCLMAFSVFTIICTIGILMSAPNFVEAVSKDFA
Cells: Flp-In 293 cells stably expressing human α7 nAchR and human RIC-3 (α7 cells, generated in house.)
Materials: 96-well plates coated with PDL (Falcon), culture medium, assay buffer, DMSO, FLIPR Calcium 5 kit (Molecular Devices), probenecid, agonist and PAM test compounds.
Brief Description of the Method (Ca^2+ Fluorometry)
α7 cells stably expressing human α7 nAchR were cultured in the medium detailed above, and were split twice a week. For the fluorometric measurements of cytosolic Ca^2+ ion concentration ([Ca^2+]i) cells were seeded in 96-well microplates at a density of 60000 cells/well and maintained overnight in a tissue culture incubator at 37° C. under an atmosphere of 95% air/5% CO2. The plating medium was identical with the culture medium. 50 μl of the growth medium was aspirated with a cell washer (BioTek Elx405UCVWS). Then 50 μl/well Calcium 5 kit diluted 2-fold in assay buffer was added manually using an 8-channel pipette. After an incubation period (20 minutes, 37° C.) 50 μl/well assay buffer containing vehicle (DMSO, 4% added) or reference α7 PAMs (4×of the final concentration) were added manually and the cells were incubated for an additional 10 minutes at 37° C. Baseline and agonist-evoked [Ca2+]i-changes were monitored with FlexStation II (Molecular Devices, Sunnyvale, Calif.), a plate reader fluorometer with integrated 8-channel fluid addition capability. Fluorescence measurements were carried out at 37° C. The dye was excited at 485 nm, emission was sampled at 525 nm at 1.4-s intervals. Baseline was recorded for 20 seconds followed by agonist stimulation. 50 μl 4× concentrated agonist solution was added to the cells using the pipettor of FlexStation II and fluorescence was monitored for an additional 40 seconds. Final DMSO concentration was 1% for all treatments. To achieve this, a series of DMSO stock solutions were prepared from all test compounds. These stocks were stored under 0° C. and were further diluted in assay buffer to obtain the desired final concentration immediately before the measurement. Agonist and PAM concentration-response studies were conducted in the presence of saturating concentrations of PAMs (mostly PNU-120596, 5 μM) and agonists (mostly PNU-282987, 1 μM), respectively. Results were expressed as ΔF/F values using SoftMax Pro software (Molecular Devices), where F was the resting fluorescence preceding agonist application and ΔF was the increase in fluorescence at a given time (ΔF=maximum fluorescence intensity values after stimulation minus average fluorescence intensity values before stimulation). In all experiments, all treatments were measured in multiple wells in parallel, and the mean ΔF/F values were used for analysis.
Consider `COc1ccc(C2=NS(=O)(=O)N(C)C(C(=O)Nc3ccc4c(c3)CCN(C)C4=O)=C2)cc1OC` [Example 2], for which the EC50 came out at 1400 nM.

Regarding `COc1ccc(C2=NS(=O)(=O)N(C)C(C(=O)Nc3ccc(C(C)=O)cc3)=C2)cc1OC` [Example 3], the EC50 is 690 nM.

Consider `COc1ccc(C2=NS(=O)(=O)N(C)C(C(=O)Nc3cccc(C(C)=O)c3)=C2)cc1OC` [Example 4], for which the EC50 is 980 nM.

On to `CCc1cccc(NC(=O)C2=CC(c3ccc(OC)c(OC)c3)=NS(=O)(=O)N2C)c1` [Example 5], for which the EC50 turned out to be 210 nM.

Consider `CCc1ccc(NC(=O)C2=CC(c3ccc(OC)c(OC)c3)=NS(=O)(=O)N2C)cc1` [Example 6], for which the EC50 was 1300 nM.

On to `COc1ccc(C2=NS(=O)(=O)N(C)C(C(=O)Nc3ccn4nccc4c3)=C2)cc1OC` [Example 7], for which the EC50 came to 2000 nM.

`COc1ccc(C2=NS(=O)(=O)N(C)C(C(=O)Nc3cccc(C#N)c3)=C2)cc1OC` [Example 8]: the concentration for a half-maximal effect (EC50) was 1800 nM.

As for `COc1ccc(C2=NS(=O)(=O)N(C)C(C(=O)Nc3ccc4c(c3)OCO4)=C2)cc1OC` [Example 9], the EC50 worked out at 1600 nM.

For the compound `COc1cccc(NC(=O)C2=CC(c3ccc(OC)c(OC)c3)=NS(=O)(=O)N2C)c1` [Example 10], the EC50 is 670 nM.

`COc1ccc(NC(=O)C2=CC(c3ccc(OC)c(OC)c3)=NS(=O)(=O)N2C)cc1` [Example 11]: the EC50 amounted to 440 nM.

Turning to `COc1ccc(C2=NS(=O)(=O)N(C)C(C(=O)Nc3cccc(C(F)(F)F)c3)=C2)cc1OC` [Example 12], the EC50 was found to be 230 nM.

Take `COc1ccc(C2=NS(=O)(=O)N(C)C(C(=O)Nc3ccc(C)c(Cl)c3)=C2)cc1OC` [Example 13]: the EC50 came to 340 nM.

Turning to `COc1ccc(C2=NS(=O)(=O)N(C)C(C(=O)Nc3ccc(C)cc3)=C2)cc1OC` [Example 14], the EC50 came to 1400 nM.

With `COc1ccc(C2=NS(=O)(=O)N(C)C(C(=O)Nc3ccnc(C)c3)=C2)cc1OC` [Example 15], the EC50 was 3000 nM.

Take `COc1ccc(C2=NS(=O)(=O)N(C)C(C(=O)Nc3cccc(C)n3)=C2)cc1OC` [Example 16]: the EC50 was 1400 nM.

Turning to `COc1ccc(C2=NS(=O)(=O)N(C)C(C(=O)Nc3ccc(C)cn3)=C2)cc1OC` [Example 17], the EC50 came to 2800 nM.

As to `COc1ccc(C2=NS(=O)(=O)N(C)C(C(=O)Nc3cc(C)ccn3)=C2)cc1OC` [Example 18], the EC50 is 2900 nM.

For `COc1ccc(C2=NS(=O)(=O)N(C)C(C(=O)Nc3cccc(F)c3)=C2)cc1OC` [Example 19], the EC50 was found to be 1600 nM.

In the case of `COc1ccc(C2=NS(=O)(=O)N(C)C(C(=O)Nc3cccc(Cl)c3)=C2)cc1OC` [Example 20], the concentration giving a half-maximal response (EC50) worked out at 940 nM.

In the case of `Cc1cccc(NC(=O)C2=CC(c3ccc4c(cnn4C)c3)=NS(=O)(=O)N2C)c1` [Example 22], the EC50 was 370 nM.

For the compound `COc1ccc(C2=NS(=O)(=O)N(C)C(C(=O)Nc3cccc(C(F)(F)F)c3)=C2)cc1C` [Example 23], the EC50 is 400 nM.

With `COc1ccc(C2=NS(=O)(=O)N(C)C(C(=O)Nc3cccc(C)c3)=C2)cc1C` [Example 24], the EC50 was determined as 210 nM.

In the case of `COc1ccc(C2=NS(=O)(=O)N(C)C(C(=O)Nc3cc(Cl)ccc3OC)=C2)cc1Cl` [Example 25], the EC50 is 1400 nM.

With `COc1ccc(C2=NS(=O)(=O)N(C)C(C(=O)Nc3cccc(C(F)(F)F)c3)=C2)cc1Cl` [Example 26], the concentration for a half-maximal effect (EC50) was found to be 360 nM.

With `COc1ccc(C2=NS(=O)(=O)N(C)C(C(=O)Nc3cccc(C)c3)=C2)cc1Cl` [Example 27], the EC50 is 110 nM.

For the compound `COc1cc(C2=NS(=O)(=O)N(C)C(C(=O)Nc3cccc(C)c3)=C2)ccc1Cl` [Example 28], the concentration for a half-maximal effect (EC50) was 1200 nM.

For the compound `CCN1C(C(=O)Nc2ccc(C)c(Cl)c2)=CC(c2ccc(OC)c(OC)c2)=NS1(=O)=O` [Example 30], the EC50 was 440 nM.

On to `CCN1C(C(=O)Nc2cccc(C(F)(F)F)c2)=CC(c2ccc(OC)c(OC)c2)=NS1(=O)=O` [Example 31], for which the EC50 was found to be 440 nM.

Turning to `CCN1C(C(=O)Nc2ccc(OC(F)(F)F)cc2)=CC(c2ccc(OC)c(OC)c2)=NS1(=O)=O` [Example 32], the EC50 came out at 720 nM.
